# Measurements as given in patent US8129371B2, “Thienopyrimidine and pyrazolopyrimidine compounds and their use as mTOR kinase and PI3 kinase inhibitors” (Wyeth LLC, priority 2007, dated 2012).
# Tests used:
# prostate line LNCap = test: In vitro cell culture growth assay (MTS), LNCap; type: cell-based; conditions: Homo sapiens, LNCaP, 72 h, LNCap cells, three days after drug treatment
# Procedure, shortened: (§1)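 Cells were plated and, one day later, treated with inhibitors. Three days after treatment, viable cell density was measured by MTS dye conversion, read as absorbance at 490 nm. Effects are expressed as percent of control growth versus vehicle-treated cells on the same plate.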
# breast line MDA468 = test: In vitro cell culture growth assay (MTS), MDA468; type: cell-based; conditions: Homo sapiens, 72 h, MDA468 cells, three days after drug treatment
# Procedure, shortened: as §1
# PI3K [1] = molecular target: T1, PI3K (Homo sapiens, UniProt P42336); test: Fluorescence polarization assay for PI3K; type: biochemical; conditions: PI3 Kinase α isoform, fluorescence polarization; read-out: PI3 Kinase α IC50
# T1 construct: PI3 Kinase α IC50; other: PI3 Kinase α; other: PI3 Kinase α isoform, fluorescence polarization
# T1 sequence (P42336 whole entry, canonical isoform): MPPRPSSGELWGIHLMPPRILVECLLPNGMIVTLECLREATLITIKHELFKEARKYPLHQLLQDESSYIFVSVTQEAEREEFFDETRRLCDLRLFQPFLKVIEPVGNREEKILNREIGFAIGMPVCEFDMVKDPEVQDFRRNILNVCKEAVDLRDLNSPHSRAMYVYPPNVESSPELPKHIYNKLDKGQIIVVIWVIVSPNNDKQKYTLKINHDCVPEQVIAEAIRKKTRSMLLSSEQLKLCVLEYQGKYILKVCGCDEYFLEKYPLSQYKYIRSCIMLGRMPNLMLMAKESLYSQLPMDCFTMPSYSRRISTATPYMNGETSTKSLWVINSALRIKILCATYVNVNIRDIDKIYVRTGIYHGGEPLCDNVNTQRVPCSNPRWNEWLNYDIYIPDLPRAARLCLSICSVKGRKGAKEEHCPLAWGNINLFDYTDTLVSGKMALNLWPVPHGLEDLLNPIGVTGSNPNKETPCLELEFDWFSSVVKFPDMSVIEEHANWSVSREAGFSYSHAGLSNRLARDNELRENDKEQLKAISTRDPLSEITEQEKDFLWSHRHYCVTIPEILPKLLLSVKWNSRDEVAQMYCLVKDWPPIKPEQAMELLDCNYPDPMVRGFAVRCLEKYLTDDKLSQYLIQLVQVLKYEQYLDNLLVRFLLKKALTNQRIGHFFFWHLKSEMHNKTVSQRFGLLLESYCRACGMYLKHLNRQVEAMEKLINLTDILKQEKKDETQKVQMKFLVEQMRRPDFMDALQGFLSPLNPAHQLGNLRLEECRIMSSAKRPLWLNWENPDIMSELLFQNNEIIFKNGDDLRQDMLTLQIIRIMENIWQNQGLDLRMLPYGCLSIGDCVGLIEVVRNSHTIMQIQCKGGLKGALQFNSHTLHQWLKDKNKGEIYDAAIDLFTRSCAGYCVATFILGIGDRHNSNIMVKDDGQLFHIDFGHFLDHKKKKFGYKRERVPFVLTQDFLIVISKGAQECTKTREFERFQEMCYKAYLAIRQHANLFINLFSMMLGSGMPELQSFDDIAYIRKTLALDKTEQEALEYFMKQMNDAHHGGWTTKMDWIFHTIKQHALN
# Procedure, shortened: (§2)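 PI3K was preincubated with compound (final DMSO 1%), and the reaction was started with PIP2/ATP substrate and run 30–60 min. It was stopped with a detector mix giving 10 nM red probe and 70 nM GST-GRP.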
# PI3K [2] = molecular target: T2, PI3K (Homo sapiens, UniProt P48736); test: Fluorescence polarization assay for PI3K; type: biochemical; conditions: PI3 Kinase γ isoform, fluorescence polarization; read-out: PI3 Kinase γ IC50
# T2 construct: PI3 Kinase γ IC50; other: PI3 Kinase γ; other: PI3 Kinase γ isoform, fluorescence polarization
# T2 sequence (P48736 whole entry, canonical isoform): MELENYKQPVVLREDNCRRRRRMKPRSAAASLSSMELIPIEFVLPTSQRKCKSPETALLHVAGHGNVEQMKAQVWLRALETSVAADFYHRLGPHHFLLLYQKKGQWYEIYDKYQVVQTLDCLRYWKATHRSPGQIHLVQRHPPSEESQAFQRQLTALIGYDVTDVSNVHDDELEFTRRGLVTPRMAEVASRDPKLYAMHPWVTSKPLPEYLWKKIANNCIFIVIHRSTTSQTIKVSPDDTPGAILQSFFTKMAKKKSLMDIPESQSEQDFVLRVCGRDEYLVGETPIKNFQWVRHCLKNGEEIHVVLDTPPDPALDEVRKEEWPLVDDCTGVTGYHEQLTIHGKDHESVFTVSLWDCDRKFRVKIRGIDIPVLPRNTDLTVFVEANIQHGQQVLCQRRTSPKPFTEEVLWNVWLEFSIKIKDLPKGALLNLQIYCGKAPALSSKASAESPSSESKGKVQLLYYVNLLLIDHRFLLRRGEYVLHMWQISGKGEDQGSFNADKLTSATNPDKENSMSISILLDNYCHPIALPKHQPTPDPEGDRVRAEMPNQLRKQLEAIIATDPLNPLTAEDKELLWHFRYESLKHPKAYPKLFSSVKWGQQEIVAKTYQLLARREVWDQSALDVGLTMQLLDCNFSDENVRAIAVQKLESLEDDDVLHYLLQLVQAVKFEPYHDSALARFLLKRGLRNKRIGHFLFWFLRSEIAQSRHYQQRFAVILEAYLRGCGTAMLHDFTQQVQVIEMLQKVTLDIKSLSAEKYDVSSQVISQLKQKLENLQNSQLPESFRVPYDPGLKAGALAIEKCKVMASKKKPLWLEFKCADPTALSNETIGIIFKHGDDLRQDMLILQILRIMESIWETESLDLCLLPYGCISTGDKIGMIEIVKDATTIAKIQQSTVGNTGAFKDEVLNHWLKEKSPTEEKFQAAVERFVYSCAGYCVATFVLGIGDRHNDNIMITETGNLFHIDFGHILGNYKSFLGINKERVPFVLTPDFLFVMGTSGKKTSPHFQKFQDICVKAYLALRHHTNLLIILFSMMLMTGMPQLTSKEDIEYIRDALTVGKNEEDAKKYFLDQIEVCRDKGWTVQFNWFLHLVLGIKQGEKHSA
# Procedure, shortened: as §2
# Human mTOR (FLAG-TOR) = molecular target: T3, Human mTOR (FLAG-TOR) (Homo sapiens, UniProt P42345); test: Human mTOR kinase assay with purified enzyme, DELFIA format; type: biochemical; conditions: purified human mTOR enzyme, DELFIA format
# T3 construct: FLAG
# Procedure, shortened: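 Purified FLAG-mTOR in HEPES pH 7.4 buffer with 10 mM MnCl2 was preincubated with inhibitor and reacted 2 h at room temperature with His6-S6K substrate, then stopped with EDTA/EGTA. Phospho-T389 S6K detected by DELFIA with Eu-labelled antibody (40 ng/mL) after plate capture; inhibition computed from signal.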
Structure (SMILES),IC50 (prostate line LNCap) [nM],IC50 (breast line MDA468) [nM],IC50 (PI3K [1]) [nM],IC50 (PI3K [2]) [nM],IC50 (Human mTOR (FLAG-TOR)) [nM]
"COCC(COC)n1ncc2c(N3CC4CCC(C3)O4)nc(-c3ccc(NC(=O)Nc4cccnc4)cc3)nc21 [Example 326, 1-(4-{1-[2-methoxy-1-(methoxymethyl)ethyl]-4-(8-oxa-3-azabicyclo[3.2.1]oct-3-yl)-1H-pyrazolo[3,4-d]pyrimidin-6-yl}phenyl)-3-pyridin-3-ylurea]",30,150,1180,9530,2.65
"COCC(COC)n1ncc2c(N3CC4CCC(C3)O4)nc(-c3ccc(NC(=O)Nc4ccc(N5CCN(C)CC5)cc4)cc3)nc21 [Example 327, 1-(4-{1-[2-methoxy-1-(methoxymethyl)ethyl]-4-(8-oxa-3-azabicyclo[3.2.1]oct-3-yl)-1H-pyrazolo[3,4-d]pyrimidin-6-yl}phenyl)-3-[4-(4-methylpiperazin-1-yl)phenyl]urea]",3,50,764,3490,3.75
"COCC(COC)n1ncc2c(N3CC4CCC(C3)O4)nc(-c3ccc(NC(=O)OC)cc3)nc21 [Example 328, methyl (4-{1-[2-methoxy-1-(methoxymethyl)ethyl]-4-(8-oxa-3-azabicyclo[3.2.1]oct-3-yl)-1H-pyrazolo[3,4-d]pyrimidin-6-yl}phenyl)carbamate]",2350,9200,5770,> 10000,125
"CN1CCN(C2CCC(n3ncc4c(N5CC6CCC(C5)O6)nc(-c5ccc(NC(=O)Nc6cccnc6)cc5)nc43)CC2)CC1 (centres unmarked) [Example 330, 1-(4-{1-[4-(4-methylpiperazin-1-yl)cyclohexyl]-4-(8-oxa-3-azabicyclo[3.2.1]oct-3-yl)-1H-pyrazolo[3,4-d]pyrimidin-6-yl}phenyl)-3-pyridin-3-ylurea]",7,60,238,1850,0.405
"CNC(=O)Nc1ccc(-c2nc(N3CC4CCC(C3)O4)c3cnn(C4CCC(N5CCCC5)CC4)c3n2)cc1 (centres unmarked) [Example 331, 1-methyl-3-{4-[4-(8-oxa-3-azabicyclo[3.2.1]oct-3-yl)-1-(4-pyrrolidin-1-ylcyclohexyl)-1H-pyrazolo[3,4-d]pyrimidin-6-yl]phenyl}urea]",380,1200,606,5320,8.05
"O=C(Nc1ccc(-c2nc(N3CC4CCC(C3)O4)c3cnn(C4CCC(N5CCCC5)CC4)c3n2)cc1)Nc1cccnc1 (centres unmarked) [Example 332, 1-{4-[4-(8-oxa-3-azabicyclo[3.2.1]oct-3-yl)-1-(4-pyrrolidin-1-ylcyclohexyl)-1H-pyrazolo[3,4-d]pyrimidin-6-yl]phenyl}-3-pyridin-3-ylurea]",370,900,351,2760,2.45
"CNC(=O)Nc1ccc(-c2nc(N3CC4CCC(C3)O4)c3cnn(C4CCC(NN(C)C)CC4)c3n2)cc1 (centres unmarked) [Example 333, 1-(4-{1-[4-(2,2-dimethylhydrazino)cyclohexyl]-4-(8-oxa-3-azabicyclo[3.2.1]oct-3-yl)-1H-pyrazolo[3,4-d]pyrimidin-6-yl}phenyl)-3-methylurea]",68,380,276,4590,0.58
"CNC(=O)Nc1ccc(-c2nc(N3CC4CCC(C3)O4)c3cnn(C4CCC(NCCO)CC4)c3n2)cc1 (centres unmarked) [Example 334, 1-{4-[1-{4-[(2-hydroxyethyl)amino]cyclohexyl}-4-(8-oxa-3-azabicyclo[3.2.1]oct-3-yl)-1H-pyrazolo[3,4-d]pyrimidin-6-yl]phenyl}-3-methylurea]",2960,5200,434,3940,4.5
"COCC(COC)n1ncc2c(N3CC4CCC(C3)O4)nc(-c3ccc(NC(=O)Nc4ccc(N5CCNCC5)cc4)cc3)nc21 [Example 335, 1-(4-{1-[2-methoxy-1-(methoxymethyl)ethyl]-4-(8-oxa-3-azabicyclo[3.2.1]oct-3-yl)-1H-pyrazolo[3,4-d]pyrimidin-6-yl}phenyl)-3-(4-piperazin-1-ylphenyl)urea]",28,210,273,4480,2.35
"COCC(COC)n1ncc2c(N3CC4CCC(C3)O4)nc(-c3ccc(NC(=O)Nc4ccc(C(=O)NN(C)C)cc4)cc3)nc21 [Example 336, 1-{4-[(2,2-dimethylhydrazino)carbonyl]phenyl}-3-(4-{1-[2-methoxy-1-(methoxymethyl)ethyl]-4-(8-oxa-3-azabicyclo[3.2.1]oct-3-yl)-1H-pyrazolo[3,4-d]pyrimidin-6-yl}phenyl)urea]",< 1,4,666,> 10000,2.75
"O=C(Nc1ccncc1)Nc1ccc(-c2nc(N3CC4CNCC(C3)O4)c3cnn(CC(F)(F)F)c3n2)cc1 [Example 337, 1-{4-[4-(9-oxa-3,7-diazabicyclo[3.3.1]non-3-yl)-1-(2,2,2-trifluoroethyl)-1H-pyrazolo[3,4-d]pyrimidin-6-yl]phenyl}-3-pyridin-4-ylurea]",2200,1900,1790,7930,31.5
"O=CN1CC2CN(c3nc(-c4ccc(NC(=O)Nc5ccncc5)cc4)nc4c3cnn4CC(F)(F)F)CC(C1)O2 [Example 338, 1-{4-[4-(7-formyl-9-oxa-3,7-diazabicyclo[3.3.1]non-3-yl)-1-(2,2,2-trifluoroethyl)-1H-pyrazolo[3,4-d]pyrimidin-6-yl]phenyl}-3-pyridin-4-ylurea]",2950,1870,9500,> 10000,787
"CC(=O)N1CC2CN(c3nc(-c4ccc(NC(=O)Nc5ccncc5)cc4)nc4c3cnn4CC(F)(F)F)CC(C1)O2 [Example 339, 1-{4-[4-(7-acetyl-9-oxa-3,7-diazabicyclo[3.3.1]non-3-yl)-1-(2,2,2-trifluoroethyl)-1H-pyrazolo[3,4-d]pyrimidin-6-yl]phenyl}-3-pyridin-4-ylurea]",> 60000,> 60000,9420,> 10000,> 6330
"CC(C)(C)OC(=O)N1CC2CN(c3nc(-c4ccc(NC(=O)Nc5ccncc5)cc4)nc4c3cnn4CC(F)(F)F)CC(C1)O2 [Example 340, tert-butyl 7-[6-{4-[(pyridin-4-ylcarbamoyl)amino]phenyl}-1-(2,2,2-trifluoroethyl)-1H-pyrazolo[3,4-d]pyrimidin-4-yl]-9-oxa-3,7-diazabicyclo[3.3.1]nonane-3-carboxylate]",5200,5200,5080,5760,305
"CNC(=O)Nc1ccc(-c2nc(N3C[C@H]4C[C@@H]3CO4)c3cnn(CC(F)(F)F)c3n2)cc1 [Example 341, 1-methyl-3-(4-{4-[(1R,4R)-2-oxa-5-azabicyclo[2.2.1]hept-5-yl]-1-(2,2,2-trifluoroethyl)-1H-pyrazolo[3,4-d]pyrimidin-6-yl}phenyl)urea]",2500,5000,4630,> 10000,91
"O=C(Nc1ccc(-c2nc(N3C[C@H]4C[C@@H]3CO4)c3cnn(CC(F)(F)F)c3n2)cc1)NC1CC1 [Example 342, 1-cyclopropyl-3-(4-{4-[(1R,4R)-2-oxa-5-azabicyclo[2.2.1]hept-5-yl]-1-(2,2,2-trifluoroethyl)-1H-pyrazolo[3,4-d]pyrimidin-6-yl}phenyl)urea]",670,1000,9500,> 10000,53
"O=C(Nc1ccc(-c2nc(N3C[C@H]4C[C@@H]3CO4)c3cnn(CC(F)(F)F)c3n2)cc1)OCCO [Example 343, 2-hydroxyethyl (4-{4-[(1R,4R)-2-oxa-5-azabicyclo[2.2.1]hept-5-yl]-1-(2,2,2-trifluoroethyl)-1H-pyrazolo[3,4-d]pyrimidin-6-yl}phenyl)carbamate]",1200,1500,5170,> 10000,81
"O=C(Nc1ccc(-c2nc(N3C[C@H]4C[C@@H]3CO4)c3cnn(CC(F)(F)F)c3n2)cc1)Nc1cccnc1 [Example 344, 1-(4-{4-[(1R,4R)-2-oxa-5-azabicyclo[2.2.1]hept-5-yl]-1-(2,2,2-trifluoroethyl)-1H-pyrazolo[3,4-d]pyrimidin-6-yl}phenyl)-3-pyridin-3-ylurea]",660,1000,1940,> 10000,17
"CN1CCN(c2ccc(NC(=O)Nc3ccc(-c4nc(N5C[C@H]6C[C@@H]5CO6)c5cnn(CC(F)(F)F)c5n4)cc3)cc2)CC1 [Example 345, 1-[4-(4-methylpiperazin-1-yl)phenyl]-3-(4-{4-[(1R,4R)-2-oxa-5-azabicyclo[2.2.1]hept-5-yl]-1-(2,2,2-trifluoroethyl)-1H-pyrazolo[3,4-d]pyrimidin-6-yl}phenyl)urea]",190,450,1920,> 10000,38.5
